Data from US6441195B1, “Substituted sulphonylamino(thio) carbonyl compounds” (Bayer Aktiengesellschaft, priority 1995, dated 2002).

Columns and labels:
Format in all cases: in vivo
weeds = experiment: Pre-emergence test (greenhouse), activity against weeds; details: in words
In short: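 Three weeks after treatment, % damage relative to untreated plants is scored, 0% meaning no effect. Seeds in normal soil received, roughly one day post-sowing, an aqueous dilution of an acetone/emulsifier concentrate, with the rate per unit area, not concentration, being the relevant dose.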

Maize = experiment: Pre-emergence test/Greenhouse, Maize; details: in vivo
In short: (§1)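 First, compound is formulated with solvent and emulsifier and diluted with water. Next, soil sown with seeds is watered with it after about 24 h, at a fixed water amount per area. Finally, damage is rated at three weeks in % against untreated controls.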

Soya beans = experiment: Pre-emergence test/Greenhouse, Soya beans; details: in vivo
In short: as §1

Lolium = experiment: Pre-emergence test/Greenhouse, Lolium; details: after three weeks
In short: as §1

Poa = experiment: Pre-emergence test/Greenhouse, Poa; details: after three weeks
In short: as §1

Sorghum = experiment: Pre-emergence test/Greenhouse, Sorghum; details: after three weeks
In short: as §1

Ambrosia = experiment: Pre-emergence test/Greenhouse, Ambrosia; details: after three weeks
In short: as §1

Matricaria = experiment: Pre-emergence test/Greenhouse, Matricaria; details: after three weeks
In short: as §1

Solanum = experiment: Pre-emergence test/Greenhouse, Solanum; details: after three weeks
In short: as §1

SMILES | activity against weeds (weeds) | degree of damage to the plants (% damage vs untreated control), Maize (Maize) [%] | degree of damage to the plants (% damage vs untreated control), Soya beans (Soya beans) [%] | degree of damage to the plants (% damage vs untreated control), Lolium (Lolium; 60 g of ai./ha) [%] | degree of damage to the plants (% damage vs untreated control), Poa (Poa; 60 g of ai./ha) [%] | degree of damage to the plants (% damage vs untreated control), Sorghum (Sorghum; 60 g of ai./ha) [%] | degree of damage to the plants (% damage vs untreated control), Ambrosia (Ambrosia; 60 g of ai./ha) [%] | degree of damage to the plants (% damage vs untreated control), Matricaria (Matricaria; 60 g of ai./ha) [%] | degree of damage to the plants (% damage vs untreated control), Solanum (Solanum; 60 g of ai./ha) [%] | degree of damage to the plants (% damage vs untreated control), Lolium (Lolium; 250 g of ai./ha) [%] | degree of damage to the plants (% damage vs untreated control), Poa (Poa; 250 g of ai./ha) [%] | degree of damage to the plants (% damage vs untreated control), Sorghum (Sorghum; 250 g of ai./ha) [%] | degree of damage to the plants (% damage vs untreated control), Ambrosia (Ambrosia; 250 g of ai./ha) [%] | degree of damage to the plants (% damage vs untreated control), Matricaria (Matricaria; 250 g of ai./ha) [%] | degree of damage to the plants (% damage vs untreated control), Solanum (Solanum; 250 g of ai./ha) [%] | degree of damage to the plants (% damage vs untreated control), Lolium (Lolium; 125 g of ai./ha) [%] | degree of damage to the plants (% damage vs untreated control), Poa (Poa; 125 g of ai./ha) [%] | degree of damage to the plants (% damage vs untreated control), Sorghum (Sorghum; 125 g of ai./ha) [%] | degree of damage to the plants (% damage vs untreated control), Ambrosia (Ambrosia; 125 g of ai./ha) [%] | degree of damage to the plants (% damage vs untreated control), Matricaria (Matricaria; 125 g of ai./ha) [%] | further results
COC(=O)c1cccc(C)c1S(=O)(=O)[N-]C(=O)n1nc(SC)n(C)c1=O.[Na+] [Example 145] | very strong activity against weeds | 0 | 0 | 95 | 95 | 95 | 95 | 60 | 95 | – | – | – | – | – | – | – | – | – | – | – | –
CCOc1nn(C(=O)NS(=O)(=O)c2c(Cl)cccc2C(=O)OC)c(=O)n1C [Example 129] | very strong activity against weeds | 10 | 10 | – | – | – | – | – | – | 95 | 95 | 90 | 60 | 90 | 95 | – | – | – | – | – | –
COC(=O)c1cccc(C)c1S(=O)(=O)NC(=O)n1nc(SCC(F)(F)F)n(C2CC2)c1=O [Example 149] | very strong activity against weeds | 0 | 30 | – | – | – | – | – | – | – | – | – | – | – | – | 95 | 95 | 80 | 95 | 95 | degree of damage to the plants (% damage vs untreated control), Solanum (Solanum; 125 g of ai./ha): 95%
C#CCSc1nn(C(=O)NS(=O)(=O)c2c(C)cccc2C(=O)OC)c(=O)n1C1CC1 [Example 160] | very strong activity against weeds | 30 | 10 | 90 | 90 | 60 | 90 | 95 | 90 | – | – | – | – | – | – | – | – | – | – | – | –
CCOc1nn(C(=O)NS(=O)(=O)c2c(OC)cccc2C(=O)OC)c(=O)n1C [Example 136] | very strong activity against weeds | 30 | 20 | – | – | – | – | – | – | – | – | – | – | – | – | 95 | 95 | 90 | 80 | 90 | degree of damage to the plants (% damage vs untreated control), Solanum (Solanum; 125 g of ai./ha): 95%
CCCc1nn(C(=O)[N-]S(=O)(=O)c2c(C)cccc2C(=O)OC)c(=O)n1C.[Na+] [Example 154] | very strong activity against weeds | 0 | 0 | 95 | 95 | 95 | 70 | 70 | 90 | – | – | – | – | – | – | – | – | – | – | – | –
Cc1cccc(C(=O)OC(C)C)c1S(=O)(=O)NC(=O)n1nc(OC(C)C)n(C)c1=O [Example 18] | very strong activity against weeds | 10 | 0 | 80 | 95 | 90 | 95 | 95 | 95 | – | – | – | – | – | – | – | – | – | – | – | –
COC(=O)c1cccc(Cl)c1S(=O)(=O)NC(=O)n1nc(SC)n(C)c1=O [Example 130] | very strong activity against weeds | 10 | 0 | – | – | – | – | – | – | 95 | 95 | 80 | 95 | 95 | 95 | – | – | – | – | – | –
CCOC(=O)c1cccc(Cl)c1S(=O)(=O)NC(=O)n1nc(SC)n(C)c1=O [Example 131] | very strong activity against weeds | 0 | 0 | – | – | – | – | – | – | 95 | 90 | 90 | 95 | 80 | 95 | – | – | – | – | – | –
CCOC(=O)c1cccc(C)c1S(=O)(=O)NC(=O)c1noc(C)n1 [Example 10] | very strong activity against weeds | 0 | 20 | – | – | – | – | – | – | 80 | 90 | 70 | 95 | 95 | 95 | – | – | – | – | – | –
CSc1nn(C(=O)NS(=O)(=O)c2c(C)cccc2C(=O)OC(C)C)c(=O)n1C [Example 8] | very strong activity against weeds | 30 | 0 | 95 | 90 | 80 | 90 | 95 | 95 | – | – | – | – | – | – | – | – | – | – | – | –
CCCOC(=O)c1cccc(C)c1S(=O)(=O)NC(=O)n1nc(OCC)n(C)c1=O [Example 21] | very strong activity against weeds | 0 | 0 | – | – | – | – | – | – | – | – | – | – | – | – | 95 | 95 | 95 | 95 | 95 | degree of damage to the plants (% damage vs untreated control), Solanum (Solanum; 125 g of ai./ha): 95%
CCCOC(=O)c1cccc(C)c1S(=O)(=O)NC(=O)n1nc(CCC)n(C)c1=O [Example 47] | very strong activity against weeds | 10 | 10 | – | – | – | – | – | – | – | – | – | – | – | – | 90 | 90 | 60 | 95 | 95 | degree of damage to the plants (% damage vs untreated control), Solanum (Solanum; 125 g of ai./ha): 95%
